Measurements taken from article PMC6273329, “Synthesis of N-(6-Arylbenzo[d]thiazole-2-acetamide Derivatives and Their Biological Activities: An Experimental and Computational Approach” (Molecules, 2016).
In brackets after ≈: the same amount, converted by molar mass. Read-outs that look alike come from different tables or passages of the source.

Legend:
[1] = Nitric oxide scavenging assay (Garrat method, Griess reagent)
Method: The literature contains reports on the antioxidant activities of 6-flourobenzothiazole-substituted triazoles using DPPH assays. […] Having a phenyl ring on the pyrozoline increased the antioxidant activity in the ferric ion reduction and DPPH solution methods. […] Synthesized compounds with their calculated IC50 values are listed in Table 5 (Figure 8 and Figure 9).
The activity of newly synthesized benzothiazole derivatives was determined using the Garrat method. Griess reported the Garrat method which is followed by a diazotization reaction. Under acidic conditions, this method utilizes sodium nitroprusside as the source of nitric oxide, sulfanilamide and N-1-naphthylethylenediamine dihydrochloride to detect NO2^−, produced at the expense of nitric oxide. A known amount of tested compounds 3a–3h was dissolved in sodium nitroprusside solution (20 mM, 100 µL) and then the volume was made up to 1000 µL with phosphate buffer (200 mM, pH 7.4). This solution was incubated for 2 h at 37 °C and Griess reagent (100 µL) was added. This solution was stored for 20 min at room temperature. At 528 nm, optical density of this colored solution was observed. For positive control, ascorbic acid was used.

urease = urease (Canavalia ensiformis, UniProt P07374); assay: biochemical; assay type: biochemical; conditions: for IC50: urease inhibition, in vitro; for inhibition at 15 µg/mL: read-out: % Inhibition at 15 µg/mL, 15 µg/mL; for inhibition at 15 µg/mL / inhibition at 40 µg/mL / % Inhibition at 40 µg/mL: mean ± SD of three measurements; for inhibition at 40 µg/mL: read-out: % Inhibition at 40 µg/mL, 40 µg/mL
urease, sequence (P07374 whole entry, looked up): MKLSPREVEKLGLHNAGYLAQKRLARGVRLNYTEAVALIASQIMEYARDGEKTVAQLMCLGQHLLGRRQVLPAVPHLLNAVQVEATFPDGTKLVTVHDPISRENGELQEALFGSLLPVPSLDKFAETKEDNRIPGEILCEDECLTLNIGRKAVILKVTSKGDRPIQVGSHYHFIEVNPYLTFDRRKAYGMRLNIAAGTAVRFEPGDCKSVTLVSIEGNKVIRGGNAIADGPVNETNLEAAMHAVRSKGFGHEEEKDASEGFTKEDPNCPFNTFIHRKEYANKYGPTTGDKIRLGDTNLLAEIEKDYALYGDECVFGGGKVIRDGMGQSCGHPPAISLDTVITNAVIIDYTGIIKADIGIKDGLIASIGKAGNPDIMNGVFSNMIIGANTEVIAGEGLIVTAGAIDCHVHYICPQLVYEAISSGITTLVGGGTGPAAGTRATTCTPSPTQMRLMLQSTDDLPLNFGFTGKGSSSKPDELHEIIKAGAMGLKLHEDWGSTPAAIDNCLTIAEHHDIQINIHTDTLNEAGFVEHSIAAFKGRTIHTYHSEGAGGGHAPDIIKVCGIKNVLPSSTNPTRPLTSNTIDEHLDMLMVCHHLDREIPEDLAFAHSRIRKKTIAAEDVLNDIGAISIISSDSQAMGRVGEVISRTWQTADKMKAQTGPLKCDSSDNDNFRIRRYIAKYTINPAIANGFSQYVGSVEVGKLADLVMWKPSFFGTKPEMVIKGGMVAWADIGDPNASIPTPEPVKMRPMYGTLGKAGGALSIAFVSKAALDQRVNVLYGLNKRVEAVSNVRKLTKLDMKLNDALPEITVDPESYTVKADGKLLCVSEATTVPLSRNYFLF

red blood cells = assay type: cell-based
Method: The haemolytic activity of benzothiazole derivatives has already been reported. […] Benzothiazole compounds with halogen substitutions show cytotoxicity towards cancer cell lines. The haemolytic activity of the newly synthesized benzothiazole derivatives were studied against Triton X-100 by a reported method.
Haemolytic activity of newly synthesized benzothiazole derivatives 3a–3h was determined using a reported method. Solutions of compounds were prepared at concentrations of 1 mg/mL in 10% DMSO with 90% water Heparinized human fresh blood (3 mL) was used that was homogeneously mixed and added into a 15 mL sterile Falcon tube. It was centrifuged for 5 min and the supernatant was removed. Chilled sterile isotonic phosphate buffer saline solution (5 mL, 7.4 pH) at 4 °C was used three times. Washed red blood cells were suspended in chilled RBS (20 mL). A haemacytometer was used for counting erythrocytes. For each assay 7.068 × 10^8 red blood cells per mL count were maintained and then diluted blood cells (180 µL) were added to the test compound (20 µL) and suspended in Eppendorf tubes. It was incubated for 35 min at 37 °C then the tubes were kept in an ice bath for 5 min and centrifuged again for 5 min. After centrifugation, the obtained supernatant was collected carefully and diluted with 900 µL of chilled PBS. All these tubes were kept in ice bath and solution (200 µL) was added into 96 well plates from each Eppendrof tube. For each essay, Triton X-100 (0.1%) was taken as positive control. For negative control, phosphate buffer was used. A microplate reader was used for determining the absorbance at 576 nm.

S. dysenteriae = assay: Antibacterial activity, 96 well plate method; assay type: cell-based; conditions: Shigella dysenteriae, read-out: % Activity at 40 μg/mL, S. dysenteriae
Method: The synthesized benzothiazole derivatives were examined for their anti-bacterial activity against two Gram positive-bacterial strains (Baccilus subtiles, Staphylococcus aureus) and four Gram-negative strains (Escherichia coli, Psuedomonas aeruginosa, Shigella dysenteriae, Salmonella typhae) at concentrations of 40 and 80 μg/mL (Table 7 and Table 8). It was concluded that the potent antibacterial activities of these compounds might be due to electron withdrawing groups present on the aryl moiety in N-protected benzothiazole molecule.
These newly benzothiazole derivatives were tested for their antibacterial activities against two Gram positive strains (Baccilus subtilis, Staphylococcus aureus) and four Gram negative strains (Escherichia coli, Psuedomonas aeruginosa, Shigella dysenteriae and Salmonella typhae) using a reported protocol. Streptomycin was used as positive control. The 96 well plate method was optimized for measuring the antibacterial activities of these compounds. In each well, sterilized broth (175 µL) was added and inoculated with glycerol stock (5 µL) of a specific bacterial strain. The initial absorbance was observed between 0.12–0.19. […] After a certain waiting time (12 h), test sample (20 µL) was added to the pre-determined wells. […] The difference in absorbance values were observed and were used as an index of bacterial growth. […]

[2] = human, 35 min, 0.1 mg/mL, pH 7.4

Structure (SMILES)	IC50 (µg/mL) nitric oxide scavenging [1] [µg/mL]	IC50 (urease; IC50 (µg/mL)) [µM]	inhibition at 15 µg/mL (urease) [%]	inhibition at 40 µg/mL (urease) [%]	% lysis of RBC (red blood cells; [2]) [%]	% lysis of RBC (red blood cells; compound solutions 1 mg/mL in 10% DMSO, human RBC, 35 min at 37 °C, mean ± SD of three) [%]	melting point [°C]	% Inhibition at 40 µg/mL (urease) [%]	inhibition at 40 µg/mL (S. dysenteriae) [%]	nitric oxide scavenging activity (in words) [1]	IC50 (urease) [µg/mL]
O=C1O[C@H]([C@@H](O)CO)C(O)=C1O [Ascorbic acid, reference compound]	50.43 (≈ 286 µM)										
CC(=O)Nc1nc2ccc(-c3ccccc3)cc2s1 [Compound 3a, N-(6-Phenylbenzo[d]thiazol-2-yl)acetamide]	32.7 (≈ 122 µM)	69.3	44 ± 0.12	83.9 ± 0.12	42.123 ± 0.479						
CC(=O)Nc1nc2ccc(Br)cc2s1 [Compound 2, N-(6-bromobenzo[d]thiazol-2-yl)acetamide]						44.628 ± 0.369					
COc1ccc(-c2ccc3nc(NC(C)=O)sc3c2)cc1 [Compound 3d, N-(6-(4-Methoxyphenyl)benzo[d]thiazol-2-yl)acetamide]		57	46.5 ± 0.15	88.5 ± 0.24	44.078 ± 0.279		218 to 220				
CC(=O)Nc1nc2ccc(-c3cc(C)cc(C)c3)cc2s1 [Compound 3h, N-(6-(3,5-Dimethylphenyl)benzo[d]thiazol-2-yl)acetamide]	32.3 (≈ 109 µM)	62.1	43.59 ± 0.13	90.07 ± 0.2	40.661 ± 0.216		205 to 207	90.33 ± 0.20	3.51 ± 0.43		
CC(=O)Nc1nc2ccc(-c3ccc(C)s3)cc2s1 [Compound 3e, N-(6-(5-Methylthiophen-2-yl)benzo[d]thiazol-2-yl)acetamide]	37.1 (≈ 129 µM)	59.6	46 ± 0.12	87 ± 0.26	44.425 ± 0.181						
CC(=O)Nc1nc2ccc(-c3cc(C#N)cc(C(F)(F)F)c3)cc2s1 [Compound 3f, N-(6-(3-Cyano-5-(trifluoromethyl)phenyl)benzo[d]thiazol-2-yl)acetamide]		53.1	42 ± 0.12	87.5 ± 0.26	44.063 ± 0.314					inactive	
NC(N)=S [Thiourea, reference compound]											23.1
CC(=O)Nc1nc2ccc(-c3ccc(C)cc3)cc2s1 [Compound 3b, N-(6-(p-Tolyl)benzo[d]thiazol-2-yl)acetamide]	26.4 (≈ 93.5 µM)	58.4	47 ± 0.11	90.51 ± 0.19	44.179 ± 0.157		205 to 207				
CC(=O)Nc1nc2ccc(-c3ccc(F)c(Cl)c3)cc2s1 [Compound 3g, N-(6-(3-Chloro-4-fluorophenyl)benzo[d]thiazol-2-yl)acetamide]	39.1 (≈ 122 µM)	58.9	42 ± 0.14	87 ± 0.26	43.614 ± 0.157		166 to 167				
CC(=O)Nc1nc2ccc(-c3cc(C(F)(F)F)cc(C(F)(F)F)c3)cc2s1 [Compound 3c, N-(6-(3,5-bis(Trifluoromethyl)phenyl)benzo[d]thiazol-2-yl)acetamide]		42.5	46.09 ± 0.1	90.33 ± 0.2	47.089 ± 0.130			90.07 ± 0.20			
